Source: patent US10314843B2, “Combinations for the treatment of neoplasms using quiescent cell targeting and inhibitors of mitosis” (Felicitex Therapeutics, Inc., priority 2016, dated 2019)

Key:
Type in all cases: cell-based
SW620 cells [1] = experiment: CellTiter-Glo cell viability assay, SW620 cells; conditions: Homo sapiens, SW-620, SW620 cells
From the text: (§1) The following cell lines were obtained from ATCC and cultured according to the ATCC recommendations: DMS273—small cell lung cancer cell line; H1975—non-small cell lung cancer cell line harboring L858R and T790M mutations in EGFR TK; A549—a non-small cell lung cancer cell line with wild type EGFR; LNCap—prostate cancer cell line; SW620—colon cancer cell line; MiaPaCa2—pancreatic cancer cell line; PANC1—pancreatic cancer cell line; OVCAR3—ovarian cancer cell line; SK-OV-3—ovarian cancer cell line.
(§2) For viability analysis, cells were seeded into 96-well plates at 2×10^3-6×10^3 cells/well; the plated number of cells depended on cell size and rate of proliferation aiming for approximately 50% confluency. After seeding, the cells were allowed to attach for 24 hours incubated at 37° C. in a humidified 5% CO2 atmosphere.
(§3) The treatments were performed using at least 6 different concentrations of a compound in 1:3 serial dilutions in DMSO such that the DMSO concentration in the cell medium was <1%. The cell cultures were incubated for an additional 96 hours in 5% CO2 incubator at 37° C. Treatments were performed in triplicate. Results were analyzed by CellTiter-Glo™ Luminescent Cell Viability Assay (Promega, cat. #G7571) according to the manufacturer's instructions using Spectra MAX Gemini Spectrophotometer (Molecular Devices).

DMS273 cells [2] = experiment: CellTiter-Glo cell viability assay, DMS273 cells; conditions: Homo sapiens, DMS-273, DMS273 cells
From the text: as §1, §2, §3

HCC827 cells = experiment: CellTiter-Glo cell viability assay, HCC827 cells; conditions: Homo sapiens
Procedure: as §2, §3

A549 cells = experiment: CellTiter-Glo cell viability assay, A549 cells; conditions: Homo sapiens
From the text: as §1, §2, §3

SK-OV-3 cells = experiment: CellTiter-Glo cell viability assay, SK-OV-3 cells; conditions: Homo sapiens, SK-OV-3, SK-OV-3 cells
From the text: as §1, §2, §3

OVCAR3 cells = experiment: CellTiter-Glo cell viability assay, OVCAR3 cells; conditions: Homo sapiens, OVCAR-3, OVCAR3 cells
From the text: as §1, §2, §3

LNCap cells = experiment: CellTiter-Glo cell viability assay, LNCap cells; conditions: Homo sapiens
From the text: as §1, §2, §3

DMS273 cells [3] = experiment: FACS cell cycle distribution (Acridine Orange), DMS273 cells; conditions: mitotic inhibitor alone, FBS+ media, 24 hours (2.7 nM paclitaxel; 1.1 nM vincristine; 8.1 nM vinorelbine)
From the text: as §1
(§4) Cell cultures were seeded into 6-well plates at 3×10^5-6×10^5 cells/well; the plated number of cells depended on cell size and rate of proliferation, aiming for approximately 50% confluency. After seeding, the cells were allowed to attach for 24 hours while incubated at 37° C. in a humidified 5% CO2 atmosphere, and then treated with compounds for desired amount of time (usually 24 hours) incubating under same conditions. Then the cells were harvested by trypsinization, pooled with the floating cells, washed in PBS, and fixed in 70% ice-cold ethanol overnight. For Acridine Orange (AO) staining, fixed cells were washed once with ice-cold PBS, re-suspended in 100 μL PBS, followed by addition of 200 μL of permeabilizing solution and 600 μL AO staining solution. The measurements were performed with Guava easyCyte HT flow cytometer (EMD Millipore) using the blue laser for excitation at 488 nm, monitoring emission of the AO-DNA complex at 526 nm and AO-RNA complex at 650 nm. The complete protocol and composition of buffers are described in the literature (Darzynkiewicz Z, Juan G, and Srour E F (2004) Differential Staining of DNA and RNA (2004). Current Protocols in Cytometry, Chapter 7:Unit 7.3).

SW620 cells [4] = experiment: FACS cell cycle distribution (Acridine Orange), SW620 cells; conditions: paclitaxel alone (2 nM), FBS+ media, 24 hours
From the text: as §1, §4

H1975 cells = experiment: CellTiter-Glo cell viability assay, H1975 cells; conditions: Homo sapiens, NCI-H1975, H1975 cells
From the text: as §1, §2, §3

CC(=O)O[C@@]12CO[C@@H]1C[C@H](O)[C@@]1(C)C(=O)[C@H](O)C3=C(C)[C@@H](OC(=O)[C@H](O)[C@@H](NC(=O)OC(C)(C)C)c4ccccc4)C[C@@](O)([C@@H](OC(=O)c4ccccc4)[C@H]21)C3(C)C [docetaxel] showed an EC50 (SW620 cells [1]; Compound I-5 not present) of 2.85 nM, an EC50 (SW620 cells [1]; Compound I-5 present at 2 μM) of 0.69 nM and an EC50 (SW620 cells [1]; Compound I-5 present at 4 μM) of under 0.015 nM. It also gave an EC50 (DMS273 cells [2]; Compound I-7 not present) of 0.64 nM, an EC50 (DMS273 cells [2]; Compound I-7 present at 2 μM) of 0.38 nM and an EC50 (DMS273 cells [2]; Compound I-7 present at 4 μM) of 0.14 nM. It also gave an EC50 (HCC827 cells; Compound I-7 not present) of 1.8 nM, an EC50 (HCC827 cells; Compound I-7 present at 2 μM) of 0.6 nM and an EC50 (HCC827 cells; Compound I-7 present at 4 μM) of 0.03 nM. It also gave an EC50 (A549 cells; Compound I-7 not present) of 1.4 nM, an EC50 (A549 cells; Compound I-7 present at 2 μM) of 0.6 nM and an EC50 (A549 cells; Compound I-7 present at 4 μM) of 0.1 nM. For the same compound, the EC50 (SK-OV-3 cells; Compound I-7 not present) was 2.5 nM, the EC50 (SK-OV-3 cells; Compound I-7 present at 2 μM) was 1.5 nM and the EC50 (SK-OV-3 cells; Compound I-7 present at 4 μM) was 0.3 nM. For the same compound, the EC50 (OVCAR3 cells; Compound I-7 not present) was 0.85 nM, the EC50 (OVCAR3 cells; Compound I-7 present at 2 μM) was 0.52 nM and the EC50 (OVCAR3 cells; Compound I-7 present at 4 μM) was under 0.04 nM.
Compound CC(=O)O[C@H]1C(=O)[C@@]2(C)[C@H]([C@H](OC(=O)c3ccccc3)[C@]3(O)C[C@H](OC(=O)[C@H](O)[C@@H](NC(=O)c4ccccc4)c4ccccc4)C(C)=C1C3(C)C)[C@]1(OC(C)=O)CO[C@@H]1C[C@@H]2O [paclitaxel] has an EC50 (SW620 cells [1]; Compound I-5 not present) of 8.1 nM, an EC50 (SW620 cells [1]; Compound I-5 present at 2 μM) of 2.3 nM and an EC50 (SW620 cells [1]; Compound I-5 present at 4 μM) of 0.2 nM. It also gave an EC50 (DMS273 cells [2]; Compound I-7 not present) of 2.7 nM, an EC50 (DMS273 cells [2]; Compound I-7 present at 2 μM) of 1.9 nM and an EC50 (DMS273 cells [2]; Compound I-7 present at 4 μM) of 0.9 nM. The EC50 (LNCap cells; Compound I-5 not present) was 3.2 nM, the EC50 (LNCap cells; Compound I-5 present at 2 μM) was 2.1 nM and the EC50 (LNCap cells; Compound I-5 present at 4 μM) was 0.9 nM. It also gave an EC50 (HCC827 cells; Compound I-7 not present) of 4.2 nM, an EC50 (HCC827 cells; Compound I-7 present at 3 μM) of 2.5 nM and an EC50 (HCC827 cells; Compound I-7 present at 6 μM) of 0.6 nM. The EC50 (A549 cells; Compound I-7 not present) was 4.8 nM, the EC50 (A549 cells; Compound I-7 present at 3 μM) was 2.5 nM and the EC50 (A549 cells; Compound I-7 present at 6 μM) was 0.7 nM. The EC50 (SK-OV-3 cells; Compound I-7 not present) was 9.7 nM, the EC50 (SK-OV-3 cells; Compound I-7 present at 2 μM) was 9.4 nM and the EC50 (SK-OV-3 cells; Compound I-7 present at 4 μM) was 4.8 nM. It also gave an EC50 (SK-OV-3 cells; Compound I-7 present at 8 μM) of 4.7 nM, an EC50 (SK-OV-3 cells; Compound I-7 present at 10 μM) of 5.2 nM and an EC50 (OVCAR3 cells; Compound I-7 not present) of 3.3 nM. For the same compound, the EC50 (OVCAR3 cells; Compound I-7 present at 3 μM) was 2.8 nM, the EC50 (OVCAR3 cells; Compound I-7 present at 6 μM) was 1.7 nM and the “pharmacological quiescence (fraction of cells in G0 phase)” value (DMS273 cells [3]) was “does not result in pharmacological quiescence”. For the same compound, the “pharmacological quiescence (fraction of cells in G0 phase)” value (SW620 cells [4]) was “does not result in pharmacological quiescence”.
CC[C@]1(O)C[C@H]2CN(CCc3c([nH]c4ccccc34)[C@@](C(=O)OC)(c3cc4c(cc3OC)N(C=O)[C@H]3[C@@](O)(C(=O)OC)[C@H](OC(C)=O)[C@]5(CC)C=CCN6CC[C@]43[C@@H]65)C2)C1 [vincristine] was tested, and the EC50 (DMS273 cells [2]; Compound I-5 not present) was 1.1 nM, the EC50 (DMS273 cells [2]; Compound I-5 present at 2 μM) was 0.4 nM and the EC50 (DMS273 cells [2]; Compound I-5 present at 4 μM) was under 0.04 nM. For the same compound, the EC50 (SK-OV-3 cells; Compound I-7 not present) was 8.7 nM, the EC50 (SK-OV-3 cells; Compound I-7 present at 4 μM) was 2.1 nM and the EC50 (SK-OV-3 cells; Compound I-7 present at 8 μM) was 1 nM. For the same compound, the EC50 (OVCAR3 cells; Compound I-7 not present) was 1.2 nM, the EC50 (OVCAR3 cells; Compound I-7 present at 2 μM) was 0.8 nM and the EC50 (OVCAR3 cells; Compound I-7 present at 4 μM) was 0.1 nM. The EC50 (H1975 cells; Compound I-5 not present) was 1.5 nM, the EC50 (H1975 cells; Compound I-5 present at 2 μM) was 0.85 nM and the EC50 (H1975 cells; Compound I-5 present at 4 μM) was 0.35 nM. The “pharmacological quiescence (fraction of cells in G0 phase)” value (DMS273 cells [3]) was “does not result in pharmacological quiescence”.
CCC1=C[C@@H]2CN(C1)Cc1c([nH]c3ccccc13)[C@@](C(=O)OC)(c1cc3c(cc1OC)N(C)[C@H]1[C@@](O)(C(=O)OC)[C@H](OC(C)=O)[C@]4(CC)C=CCN5CC[C@]31[C@@H]54)C2 [vinorelbine] gave an EC50 (DMS273 cells [2]; Compound I-5 not present) of 1.1 nM, an EC50 (DMS273 cells [2]; Compound I-5 present at 2 μM) of 0.4 nM and an EC50 (DMS273 cells [2]; Compound I-5 present at 4 μM) of under 0.04 nM. For the same compound, the EC50 (A549 cells; Compound I-7 not present) was 27 nM, the EC50 (A549 cells; Compound I-7 present at 2 μM) was 16 nM and the EC50 (A549 cells; Compound I-7 present at 4 μM) was 6 nM. It also gave an EC50 (SK-OV-3 cells; Compound I-7 not present) of 15.1 nM, an EC50 (SK-OV-3 cells; Compound I-7 present at 2 μM) of 10.1 nM and an EC50 (SK-OV-3 cells; Compound I-7 present at 4 μM) of 4.7 nM. For the same compound, the EC50 (OVCAR3 cells; Compound I-7 not present) was 2.4 nM, the EC50 (OVCAR3 cells; Compound I-7 present at 1 μM) was 2.4 nM and the EC50 (OVCAR3 cells; Compound I-7 present at 3 μM) was 0.1 nM. It also gave an EC50 (H1975 cells; Compound I-5 not present) of 9.5 nM, an EC50 (H1975 cells; Compound I-5 present at 2 μM) of 5.2 nM and an EC50 (H1975 cells; Compound I-5 present at 4 μM) of 2.1 nM. For the same compound, the “pharmacological quiescence (fraction of cells in G0 phase)” value (DMS273 cells [3]) was “does not result in pharmacological quiescence”.
